In brackets after ≈: the same amount, converted by molar mass. Activity calls are given as the source filed them. The rule behind the calls is not given here.
Key:
Format in all cases: functional
Staphylococcus aureus [1] = assay: Antibacterial activity against tarO deficient Staphylococcus aureus RN4220 assessed as growth inhibition at 100 uM after 12 hrs by optical density plate reader method; conditions: for inhibition of growth at 100 µM: RN4220, 12 h, read-out: GI
Staphylococcus aureus [2] = assay: Antibacterial activity against Staphylococcus aureus RN4220 assessed as growth inhibition at 100 uM after 12 hrs by optical density plate reader method
Staphylococcus aureus [3] = assay: Antibacterial activity against tarO deficient Staphylococcus aureus RN4220 assessed as cell survival at 100 uM after 12 hrs by optical density plate reader method; conditions: RN4220, 12 h
Staphylococcus aureus [4] = assay: Antibacterial activity against Staphylococcus aureus RN4220 assessed as cell survival at 100 uM after 12 hrs by optical density plate reader method; conditions: RN4220, 12 h
Staphylococcus aureus [5] = assay: Antibacterial activity against Staphylococcus aureus RN4220 after 12 hrs by optical density plate reader method
Staphylococcus aureus [6] = assay: Antibacterial activity against tarO deficient Staphylococcus aureus RN4220 after 12 hrs by optical density plate reader method; conditions: RN4220, 12 h
Staphylococcus aureus [7] = assay: Antibacterial activity against methicillin-resistant Staphylococcus aureus COL after 12 hrs by optical density plate reader method
Staphylococcus aureus [8] = assay: Antibacterial activity against methicillin-resistant Staphylococcus aureus MW2 after 12 hrs by optical density plate reader method; conditions: MW2, 12 h
Staphylococcus aureus [9] = assay: Antibacterial activity against methicillin-sensitive Staphylococcus aureus Newman after 12 hrs by optical density plate reader method
Staphylococcus aureus [10] = assay: Antibacterial activity against methicillin-sensitive Staphylococcus aureus RN6390 after 12 hrs by optical density plate reader method; conditions: RN6390, 12 h
[11] = Staphylococcus aureus, RN4220, 12 h, read-out: GI
[12] = Staphylococcus aureus, RN4220, 12 h, read-out: MIC

COc1cc2c(N3CCN(c4ccccc4)CC3)nc3c(S(=O)(=O)c4ccc(C)cc4)nnn3c2cc1OC
inhibition of growth at 100 µM (Staphylococcus aureus [1]): > 70% | inhibition of growth at 100 µM (Staphylococcus aureus [2]; [11]): > 31%

CCN(CC)c1nc2c(S(=O)(=O)c3ccccc3)nnn2c2cc3c(cc12)OCCO3
inhibition of growth at 100 µM (Staphylococcus aureus [1]): < 30% | inhibition of growth at 100 µM (Staphylococcus aureus [2]; [11]): < 30%

Cc1ccc(-c2c3c(=O)n(C)c(=O)n(C)c3c3n2-c2ccccc2NC3c2ccc(C)cc2O)cc1 (stereo unspecified)
survival at 100 µM (Staphylococcus aureus [3]): 64% | survival at 100 µM (Staphylococcus aureus [4]): 34%

CCCN(CCOC)c1nc2c(S(=O)(=O)c3ccc(C)cc3)nnn2c2cc(OC)c(OC)cc12
inhibition of growth at 100 µM (Staphylococcus aureus [2]; [11]): 31%

COc1ccc(O)c(C2Nc3ccccc3-n3c(-c4ccccc4)c4c(=O)n(C)c(=O)n(C)c4c32)c1 (stereo unspecified)
survival at 100 µM (Staphylococcus aureus [3]): 40% | survival at 100 µM (Staphylococcus aureus [4]): 20%

Cn1c(=O)c2c(-c3ccccc3)n3c(c2n(C)c1=O)C(c1ccco1)Nc1ccccc1-3 (stereo unspecified)
survival at 100 µM (Staphylococcus aureus [3]): 98% | survival at 100 µM (Staphylococcus aureus [4]): 100%

CCN(c1nc2c(S(=O)(=O)c3ccc(C)cc3)nnn2c2cc(OC)c(OC)cc12)C(C)C
MIC (Staphylococcus aureus [5]; [12]): 1.6 µM (≈ 0.751 µg/mL)

Cn1c(=O)c2c(-c3ccccc3)n3c(c2n(C)c1=O)C(c1cccc([N+](=O)[O-])c1)Nc1ccccc1-3 (stereo unspecified)
survival at 100 µM (Staphylococcus aureus [3]): 74% | survival at 100 µM (Staphylococcus aureus [4]): 64%

CCOCCN(CCOCC)c1nc2c(S(=O)(=O)c3ccc(C)cc3)nnn2c2cc(OC)c(OC)cc12
inhibition of growth at 100 µM (Staphylococcus aureus [2]; [11]): 31%

COc1cc2c(N3CCc4ccccc4C3)nc3c(S(=O)(=O)c4ccc(C)cc4)nnn3c2cc1OC
inhibition of growth at 100 µM (Staphylococcus aureus [1]): > 70% | inhibition of growth at 100 µM (Staphylococcus aureus [2]; [11]): 31%

Cn1c(=O)c2c(-c3ccccc3)n3c(c2n(C)c1=O)C(c1ccccc1[N+](=O)[O-])Nc1ccccc1-3 (stereo unspecified)
survival at 100 µM (Staphylococcus aureus [3]): 86% | survival at 100 µM (Staphylococcus aureus [4]): 79%

COc1cc2c(N3CCCCC3)nc3c(S(=O)(=O)c4ccc(C)cc4)nnn3c2cc1OC
inhibition of growth at 100 µM (Staphylococcus aureus [2]; [11]): > 31%

CCN(CC)c1nc2c(S(=O)(=O)c3ccccc3)nnn2c2cc(Br)ccc12
MIC (Staphylococcus aureus [6]): 100 µM (≈ 46 µg/mL) | inhibition of growth at 100 µM (Staphylococcus aureus [2]; [11]): > 31%

COc1ccc(-c2c3c(=O)n(C)c(=O)n(C)c3c3n2-c2ccccc2NC3c2cc(O)ccc2O)cc1 (stereo unspecified)
survival at 100 µM (Staphylococcus aureus [3]): 26% | survival at 100 µM (Staphylococcus aureus [4]): 0%

COc1ccc(C2Nc3ccccc3-n3c(-c4ccccc4)c4c(=O)n(C)c(=O)n(C)c4c32)cc1 (stereo unspecified)
survival at 100 µM (Staphylococcus aureus [3]): 81% | survival at 100 µM (Staphylococcus aureus [4]): 37%

COc1ccc(-c2c3c(=O)n(C)c(=O)n(C)c3c3n2-c2ccccc2NC3c2ccccc2OC)cc1 (stereo unspecified)
survival at 100 µM (Staphylococcus aureus [3]): 85% | survival at 100 µM (Staphylococcus aureus [4]): 67%

Cn1c(=O)c2c(-c3ccc(Cl)cc3)n3c(c2n(C)c1=O)C(c1ccccc1)Nc1ccccc1-3 (stereo unspecified)
survival at 100 µM (Staphylococcus aureus [3]): 74% | survival at 100 µM (Staphylococcus aureus [4]): 65%

COc1ccc(-c2c3c(=O)n(C)c(=O)n(C)c3c3n2-c2ccccc2NC3c2ccco2)cc1 (stereo unspecified)
survival at 100 µM (Staphylococcus aureus [3]): 69% | survival at 100 µM (Staphylococcus aureus [4]): 57%

COc1ccc(-c2c3c(=O)n(C)c(=O)n(C)c3c3n2-c2ccccc2NC3c2ccc(OC)cc2)cc1 (stereo unspecified)
survival at 100 µM (Staphylococcus aureus [3]): 88% | survival at 100 µM (Staphylococcus aureus [4]): 93%

CCN(CC)c1nc2c(S(=O)(=O)c3ccccc3)nnn2c2cccc(Cl)c12
inhibition of growth at 100 µM (Staphylococcus aureus [1]): < 30% | inhibition of growth at 100 µM (Staphylococcus aureus [2]; [11]): < 30%

CCN(CC)c1nc2c(S(=O)(=O)c3ccccc3)nnn2c2ccc(Br)cc12
MIC (Staphylococcus aureus [5]; [12]): 12.5 µM (≈ 5.75 µg/mL)

CCN(CC)c1nc2c(S(=O)(=O)c3ccccc3)nnn2c2cc(OC)c(OC)cc12
inhibition of growth at 100 µM (Staphylococcus aureus [1]): < 30% | MIC (Staphylococcus aureus [7]): 3.1 µM (≈ 1.37 µg/mL) | MIC (Staphylococcus aureus [8]): 3.1 µM (≈ 1.37 µg/mL) | MIC (Staphylococcus aureus [9]): 3.1 µM (≈ 1.37 µg/mL) | MIC (Staphylococcus aureus [5]; [12]): 1.8 µM (≈ 0.795 µg/mL) | MIC (Staphylococcus aureus [10]): 3.1 µM (≈ 1.37 µg/mL)

Cc1ccc(-c2c3c(=O)n(C)c(=O)n(C)c3c3n2-c2ccccc2NC3c2ccc(C#N)cc2)cc1 (stereo unspecified)
survival at 100 µM (Staphylococcus aureus [3]): 81% | survival at 100 µM (Staphylococcus aureus [4]): 95%

CCN(CC)c1nc2c(S(=O)(=O)c3ccccc3)nnn2c2cc(C)ccc12
inhibition of growth at 100 µM (Staphylococcus aureus [1]): < 30% | inhibition of growth at 100 µM (Staphylococcus aureus [2]; [11]): < 30%

CCN(CC)c1nc2c(S(=O)(=O)c3ccccc3)nnn2c2c(Cl)cccc12
inhibition of growth at 100 µM (Staphylococcus aureus [1]): < 30% | inhibition of growth at 100 µM (Staphylococcus aureus [2]; [11]): < 30%

Cn1c(=O)c2c(-c3ccccc3)n3c(c2n(C)c1=O)C(c1ccc([N+](=O)[O-])cc1)Nc1ccccc1-3 (stereo unspecified)
survival at 100 µM (Staphylococcus aureus [3]): 73% | survival at 100 µM (Staphylococcus aureus [4]): 49%

CCCCN(CC)c1nc2c(S(=O)(=O)c3ccc(C)cc3)nnn2c2cc(OC)c(OC)cc12
MIC (Staphylococcus aureus [5]; [12]): 3.1 µM (≈ 1.5 µg/mL)

Cn1c(=O)c2c(-c3ccccc3)n3c(c2n(C)c1=O)C(c1ccc(F)cc1)Nc1ccccc1-3 (stereo unspecified)
survival at 100 µM (Staphylococcus aureus [3]): 48% | survival at 100 µM (Staphylococcus aureus [4]): 26%

Cc1cc2c(cc1C)-n1c(-c3ccccc3)c3c(=O)n(C)c(=O)n(C)c3c1C(c1ccco1)N2 (stereo unspecified)
survival at 100 µM (Staphylococcus aureus [3]): 103% | survival at 100 µM (Staphylococcus aureus [4]): 94%

Cn1c(=O)c2c(-c3ccccc3)n3c(c2n(C)c1=O)C(c1cc(Cl)ccc1O)Nc1ccccc1-3 (stereo unspecified)
survival at 100 µM (Staphylococcus aureus [3]): 78% | survival at 100 µM (Staphylococcus aureus [4]): 35%

CCN(CC)c1nc2c(S(=O)(=O)c3ccc(C)cc3)nnn2c2cc(OC)c(OC)cc12
inhibition of growth at 100 µM (Staphylococcus aureus [1]): < 30% | MIC (Staphylococcus aureus [5]; [12]): 2.5 µM (≈ 1.14 µg/mL)

CCN(CC)c1nc2c(S(=O)(=O)c3ccccc3)nnn2c2ccc(F)cc12
inhibition of growth at 100 µM (Staphylococcus aureus [1]): < 30% | inhibition of growth at 100 µM (Staphylococcus aureus [2]; [11]): > 31%

CCN(CC)c1nc2c(S(=O)(=O)c3ccccc3)nnn2c2ccc(OC)cc12
MIC (Staphylococcus aureus [5]): 25 µM (≈ 10.3 µg/mL)

CCN(CC)c1nc2c(S(=O)(=O)c3ccccc3)nnn2c2cc(OC)ccc12
inhibition of growth at 100 µM (Staphylococcus aureus [1]): > 31% | inhibition of growth at 100 µM (Staphylococcus aureus [2]; [11]): > 31%

Cc1ccc(C2Nc3ccccc3-n3c(-c4ccccc4)c4c(=O)n(C)c(=O)n(C)c4c32)cc1 (stereo unspecified)
survival at 100 µM (Staphylococcus aureus [3]): 70% | survival at 100 µM (Staphylococcus aureus [4]): 4%

CC1CCN(c2nc3c(S(=O)(=O)c4ccccc4)nnn3c3ccc(Cl)cc23)CC1
Activity (Staphylococcus aureus [1]): inactive

CC(=O)c1ccc(Nc2nc3c(S(=O)(=O)c4ccc(C)c(C)c4)nnn3c3ccccc23)cc1
Activity (Staphylococcus aureus [1]): inactive

COc1ccc(CNc2nc3c(S(=O)(=O)c4ccccc4)nnn3c3ccc(Cl)cc23)cc1
Activity (Staphylococcus aureus [1]): inactive

CCc1ccc(S(=O)(=O)c2nnn3c2nc(NCc2ccccc2OC)c2cc(Cl)ccc23)cc1
Activity (Staphylococcus aureus [1]): inactive

CCN(CC)c1nc2c(S(=O)(=O)c3ccccc3)nnn2c2cc(Cl)ccc12
inhibition of growth at 100 µM (Staphylococcus aureus [1]): < 30% | inhibition of growth at 100 µM (Staphylococcus aureus [2]; [11]): < 30%

O=C(Nc1ccc(Nc2nc3c(S(=O)(=O)c4ccc(Br)cc4)nnn3c3ccccc23)cc1)c1ccco1
Activity (Staphylococcus aureus [1]): inactive

Cc1ccc(C)c(N2CCN(c3nc4c(S(=O)(=O)c5ccccc5)nnn4c4ccc(Cl)cc34)CC2)c1
Activity (Staphylococcus aureus [1]): inactive

Cc1ccc(C2Nc3cc(C)c(C)cc3-n3c(-c4ccccc4)c4c(=O)n(C)c(=O)n(C)c4c32)o1 (stereo unspecified)
survival at 100 µM (Staphylococcus aureus [3]): 92% | survival at 100 µM (Staphylococcus aureus [4]): 95%

Cc1ccc(C2Nc3ccccc3-n3c(-c4ccccc4)c4c(=O)n(C)c(=O)n(C)c4c32)o1 (stereo unspecified)
survival at 100 µM (Staphylococcus aureus [3]): 110% | survival at 100 µM (Staphylococcus aureus [4]): 101%

COc1ccccc1C1Nc2ccccc2-n2c(-c3ccccc3)c3c(=O)n(C)c(=O)n(C)c3c21 (stereo unspecified)
survival at 100 µM (Staphylococcus aureus [3]): 123% | survival at 100 µM (Staphylococcus aureus [4]): 85%

CCc1ccc(S(=O)(=O)c2nnn3c2nc(N2CCC(C(N)=O)CC2)c2cc(Cl)ccc23)cc1
Activity (Staphylococcus aureus [1]): inactive

COc1ccccc1CNc1nc2c(S(=O)(=O)c3ccccc3)nnn2c2ccc(Cl)cc12
Activity (Staphylococcus aureus [1]): inactive

Cc1ccc(CNc2nc3c(S(=O)(=O)c4cc(C)ccc4C)nnn3c3ccccc23)cc1
Activity (Staphylococcus aureus [1]): inactive

CCc1ccc(S(=O)(=O)c2nnn3c2nc(NCc2ccccc2)c2cc(Cl)ccc23)cc1
Activity (Staphylococcus aureus [1]): inactive

CCc1ccc(S(=O)(=O)c2nnn3c2nc(NCCC(C)C)c2cc(Cl)ccc23)cc1
Activity (Staphylococcus aureus [1]): inactive

COCCCNc1nc2c(S(=O)(=O)c3ccc(C)c(C)c3)nnn2c2ccc(Cl)cc12
Activity (Staphylococcus aureus [1]): inactive

CC(=O)NCCNc1nc2c(-c3ccccc3)nnn2c2ccccc12
Activity (Staphylococcus aureus [1]): inactive

CCc1ccc(S(=O)(=O)c2nnn3c2nc(N(C)Cc2ccccc2)c2cc(Cl)ccc23)cc1
Activity (Staphylococcus aureus [1]): inactive

CCN(CC)c1nc2c(S(=O)(=O)c3ccccc3)nnn2c2ccc(C)cc12
inhibition of growth at 100 µM (Staphylococcus aureus [1]): < 30% | MIC (Staphylococcus aureus [5]; [12]): 25 µM (≈ 9.89 µg/mL)

CCCN(CCC)c1nc2c(S(=O)(=O)c3ccc(C)cc3)nnn2c2cc(OC)c(OC)cc12
MIC (Staphylococcus aureus [5]; [12]): 6.3 µM (≈ 3.05 µg/mL)

Cc1ccc(S(=O)(=O)c2nnn3c2nc(NCC2CCCO2)c2ccccc23)cc1 (stereo unspecified)
Activity (Staphylococcus aureus [1]): inactive

CCN(c1nc2c(S(=O)(=O)c3ccc(Cl)cc3)nnn2c2cc(OC)c(OC)cc12)C(C)C
inhibition of growth at 100 µM (Staphylococcus aureus [1]): < 30% | MIC (Staphylococcus aureus [5]; [12]): 2.5 µM (≈ 1.22 µg/mL)

CCN(CC)c1nc2c(S(=O)(=O)c3ccccc3)nnn2c2ccc([N+](=O)[O-])cc12
inhibition of growth at 100 µM (Staphylococcus aureus [2]): > 31%

From ChEMBL document CHEMBL1154960, “Development of improved inhibitors of wall teichoic acid biosynthesis with potent activity against Staphylococcus aureus” (Bioorg Med Chem Lett, 2010)
